Test [1] is filed under the species Mus musculus. As to the kind of experiment: Compound was tested for abrasion score in mice at a dose of 3.6 nmol/25 g of TTNPB and 28.8 nmol/25 g of the compound. The test is classed as functional.
The species entered for test [2] is Mus musculus. The experiment in a line: Compound was tested for abrasion score in mice at a dose of 3.6 nmol/25 g of TTNPB and 7.2 nmol/25 g of the compound. In kind it is functional.
The species entered for test [3] is Mus musculus. As to the kind of experiment: Compound was tested for flaking score in mice at a dose of 3.6 nmol/25 g of TTNPB and 7.2 nmol/25 g of the compound. The test is classed as functional.
Test [4] is filed under the species Mus musculus. As to the kind of experiment: Compound was tested for its effect on body weight gain in mice at a dose of 3.6 nmol/25 g of TTNPB and 28.8 nmol/25 g of the compound. The test is classed as functional.
The species named for test [5] is Mus musculus. As to the kind of experiment: Compound was tested for its effect on body weight gain in mice at a dose of 3.6 nmol/25 g of TTNPB and 7.2 nmol/25 g of the compound. The test is classed as functional.
Test [6] is filed under the species Mus musculus. As to the kind of experiment: Compound was tested for cutaneous toxicity score in mice at a dose of 3.6 nmol/25 g of TTNPB and 28.8 nmol/25 g of the compound. In kind it is functional.
The species entered for test [7] is Mus musculus. The experiment in a line: Compound was tested for cutaneous toxicity score in mice at a dose of 3.6 nmol/25 g of TTNPB and 7.2 nmol/25 g of the compound. In kind it is functional.
Test [8] is filed under the species Mus musculus. As to the kind of experiment: Compound was tested for flaking score in mice at a dose of 3.6 nmol/25 g of TTNPB and 28.8 nmol/25 g of the compound. The test is classed as functional.
For test [9], the target named is T1, Retinoic acid receptor alpha (Homo sapiens) (UniProt P10276).
T1 sequence (whole entry): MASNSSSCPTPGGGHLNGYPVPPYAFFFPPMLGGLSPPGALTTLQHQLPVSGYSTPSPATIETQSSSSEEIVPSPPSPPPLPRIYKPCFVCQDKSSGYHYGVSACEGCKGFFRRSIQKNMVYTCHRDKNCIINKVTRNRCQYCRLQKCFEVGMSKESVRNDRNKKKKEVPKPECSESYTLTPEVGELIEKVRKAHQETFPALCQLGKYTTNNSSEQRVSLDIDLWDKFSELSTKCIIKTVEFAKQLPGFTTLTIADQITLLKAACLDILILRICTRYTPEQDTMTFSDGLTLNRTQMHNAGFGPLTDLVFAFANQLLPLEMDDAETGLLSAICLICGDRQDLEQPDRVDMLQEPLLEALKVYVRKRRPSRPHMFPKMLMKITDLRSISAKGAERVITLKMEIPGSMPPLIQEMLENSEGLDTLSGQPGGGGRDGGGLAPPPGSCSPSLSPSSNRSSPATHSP
The experiment in a line: Relative inhibition of TTNPB activity vs background activity (100% inhibition) against RAR alpha. Conditions: concentration not given here. In kind it is functional.

Test [10] concerns the target T2, Retinoic acid receptor beta (Homo sapiens) (UniProt P10826).
T2 sequence (whole entry): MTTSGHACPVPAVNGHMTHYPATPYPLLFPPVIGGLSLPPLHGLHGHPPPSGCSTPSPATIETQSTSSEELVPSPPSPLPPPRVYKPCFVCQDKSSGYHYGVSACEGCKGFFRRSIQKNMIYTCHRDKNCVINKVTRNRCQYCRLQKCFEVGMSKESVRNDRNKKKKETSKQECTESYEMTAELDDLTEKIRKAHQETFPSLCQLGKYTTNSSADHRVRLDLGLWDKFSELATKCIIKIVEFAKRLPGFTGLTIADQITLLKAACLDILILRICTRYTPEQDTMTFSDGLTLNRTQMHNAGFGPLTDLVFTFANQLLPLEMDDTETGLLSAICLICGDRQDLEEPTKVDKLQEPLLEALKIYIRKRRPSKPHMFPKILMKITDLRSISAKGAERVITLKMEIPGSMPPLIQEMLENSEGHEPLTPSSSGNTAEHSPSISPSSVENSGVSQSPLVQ
The experiment in a line: Relative inhibition of TTNPB activity vs background activity (100% inhibition) against RAR beta. In kind it is functional. The following applies: concentration not given here.

Test [11] addresses T3, Retinoic acid receptor gamma (Homo sapiens) (UniProt P13631).
T3 sequence (whole entry): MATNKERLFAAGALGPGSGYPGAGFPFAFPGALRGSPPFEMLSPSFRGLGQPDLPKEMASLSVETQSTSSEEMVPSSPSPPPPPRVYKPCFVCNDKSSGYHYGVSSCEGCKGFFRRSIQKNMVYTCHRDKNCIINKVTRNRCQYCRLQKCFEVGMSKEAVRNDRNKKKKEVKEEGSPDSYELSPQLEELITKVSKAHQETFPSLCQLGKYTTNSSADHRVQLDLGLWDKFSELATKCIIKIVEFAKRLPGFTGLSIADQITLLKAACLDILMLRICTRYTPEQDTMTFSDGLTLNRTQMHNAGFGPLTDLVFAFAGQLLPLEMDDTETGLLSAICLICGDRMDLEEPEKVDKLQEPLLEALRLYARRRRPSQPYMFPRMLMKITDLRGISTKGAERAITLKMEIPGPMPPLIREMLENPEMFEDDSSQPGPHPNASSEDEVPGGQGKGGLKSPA
As to the kind of experiment: Relative inhibition of TTNPB activity vs background activity(100% inhibition) against RAR gamma. The test is classed as functional. Conditions: concentration not given here.

Test [12] addresses T4, Retinoic acid receptor gamma (Homo sapiens, UniProt P13631).
T4 sequence (P13631 whole entry): T3 sequence (whole entry)
As to the kind of experiment: Binding affinity of [3H]- RA to baculovirus expressed human Retinoic acid receptor gamma.

Test [13] concerns the target T5, Retinoic acid receptor beta (Homo sapiens, UniProt P10826).
T5 sequence (P10826 whole entry): T2 sequence (whole entry)
As to the kind of experiment: Binding affinity of [3H]- RA to baculovirus expressed human Retinoic acid receptor beta.

Test [14] deals with T4, Retinoic acid receptor gamma. The experiment in a line: Antagonistic activity against RAR gamma in transcriptional activation assay with 3.2 nM TTNPB. The test is classed as functional.
Test [15] addresses T6, Retinoic acid receptor alpha (Homo sapiens, UniProt P10276).
T6 sequence (P10276 whole entry): T1 sequence (whole entry)
As to the kind of experiment: Binding affinity of [3H]- RA to baculovirus expressed human RAR alpha.

Test [16] addresses T5, Retinoic acid receptor beta. As to the kind of experiment: Antagonistic activity against RAR beta in transcriptional activation assay with 10 nM TTNPB. In kind it is functional.
In test [17] the target is T6, Retinoic acid receptor alpha. The experiment in a line: Antagonistic activity against RAR alpha in transcriptional activation assay with 32 nM TTNPB. The test is classed as functional.
The species named for test [18] is Mus musculus. The experiment in a line: Compound was tested for abrasion score in mice at a dose of 3.6 nmol/25 g. The test is classed as functional.
For test [19], the species on record is Mus musculus. The experiment in a line: Compound was tested for flaking score in mice at a dose of 3.6 nmol/25 g. In kind it is functional.
The species entered for test [20] is Mus musculus. The experiment in a line: Compound was tested for its effect on body weight gain in mice at a dose of 3.6 nmol/25 g. In kind it is functional.
For test [21], the species on record is Mus musculus. As to the kind of experiment: Compound was tested for cutaneous toxicity score in mice at a dose of 3.6 nmol/25 g. In kind it is functional.

In general, inhibition refers to how much of the control response was suppressed. By Kd is commonly meant the constant that tells how readily two partners part at equilibrium. Broadly, the IC50 is the concentration that gives 50% inhibition. Read a low IC50 as inhibition by little substance.

SMILES strings stand for the structures.

As for `C/C(=C\c1ccc(C(=O)O)cc1)c1ccc2c(c1)C(C)(C)CCC2(C)C.Cc1ccc(C2=CC(C)(C)Sc3cc4ccc(-c5ccc(C(=O)O)cc5)cc4cc32)cc1`, the Abrasion score in the test listed under Mus musculus [1] and in the test listed under Mus musculus [2] was 0 in each case. Besides, the Flaking score in the test listed under Mus musculus [3] and in the test listed under Mus musculus [8] was 1 throughout. Moreover, the Gain in the test filed under Mus musculus [4] amounted to 0%; in the test listed under Mus musculus [5], 5%. In addition, the results for the Cutaneous toxicology score in the test filed under Mus musculus [6] and in the test listed under Mus musculus [7] were 0.7 and 1.4, respectively.

On to `Cc1ccc(C2=CC(C)(C)Oc3cc4ccc(-c5ccc(C(=O)O)cc5)cc4cc32)cc1` [listing 1 of 2 here], for which the inhibition came out at 97% in test [9], 98% in test [10] and 98% in test [11].

In the case of `Cc1ccc(C2=CCC(C)(C)c3cc4ccc(-c5ccc(C(=O)O)cc5)cc4cc32)cc1` [listing 1 of 2 here], the Kd in test [12] was determined as 7 nM; in [13], 4 nM; in test [15] it was 13 nM. The IC50 in test [14] amounted to 2 nM; in test [16] it was 22 nM; in test [17], 20 nM.

`Cc1ccc(C2=CC(C)(C)Sc3cc4ccc(-c5ccc(C(=O)O)cc5)cc4cc32)cc1` [listing 1 of 2 here]: the inhibition came out at 97% in test [9], 98% in test [10] and 98% in test [11].

Take `Cc1ccc(C2=CCC(C)(C)c3cc4ccc(-c5ccc(C(=O)O)cc5)cc4cc32)s1`: the Kd worked out at 11 nM in [12], 6 nM in test [13] and 15 nM in test [15]. In addition, the IC50 in test [14] came out at 2 nM; in [16] it was 15 nM; in test [17], 20 nM. Moreover, the values for the inhibition in test [9], in [10] and in test [11] were 95%, 83% and 96%, respectively.

On to `C/C(=C\c1ccc(C(=O)O)cc1)c1ccc2c(c1)C(C)(C)CCC2(C)C.Cc1ccc(C2=CC(C)(C)Oc3cc4ccc(-c5ccc(C(=O)O)cc5)cc4cc32)cc1`, for which the Abrasion score came to 0 in the test listed under Mus musculus [1] and 1 in the test filed under Mus musculus [2]. Further, the Flaking score in the test listed under Mus musculus [3] and in the test listed under Mus musculus [8] was 1 throughout. Further, the Gain in the test filed under Mus musculus [4] was determined as 2%; in the test filed under Mus musculus [5] it was 3%. Also, the Cutaneous toxicology score in the test listed under Mus musculus [6] stood at 1; in the test listed under Mus musculus [7] it was 1.9.

Take `Cc1ccc(C2=CC(C)(C)Sc3cc4ccc(-c5ccc(C(=O)O)cc5)cc4cc32)s1`: the Kd in test [12] is 18 nM; in test [13], 13 nM; in [15], 13 nM.

As for `C/C(=C\c1ccc(C(=O)O)cc1)c1ccc2c(c1)C(C)(C)CCC2(C)C.Cc1ccc(C2=CC(C)(C)Oc3cc4ccc(-c5ccc(C(=O)O)cc5)cc4cc32)s1`, the Abrasion score in the test listed under Mus musculus [1] worked out at 1; in the test listed under Mus musculus [2] it was 3. The Flaking score in the test filed under Mus musculus [3] and in the test listed under Mus musculus [8] was 2 each time. For the same molecule, the Gain came out at 1% in the test listed under Mus musculus [4] and 6% in the test listed under Mus musculus [5]. Also, the figures for the Cutaneous toxicology score in the test listed under Mus musculus [6] and in the test listed under Mus musculus [7] were 3 and 4.6, respectively.

In the case of `Cc1ccc(C2=CC(C)(C)Sc3cc4ccc(-c5ccc(C(=O)O)cc5)cc4cc32)cc1` [listing 2 of 2 here], the Kd came to 5 nM in [12], 6 nM in test [13] and 5.5 nM in [15]. The results for the IC50 in test [14], in test [16] and in test [17] were 0.5 nM, 2 nM and 1.5 nM, respectively.

Consider `C/C(=C\c1ccc(C(=O)O)cc1)c1ccc2c(c1)C(C)(C)CCC2(C)C.Cc1ccc(C2=CCC(C)(C)c3cc4ccc(-c5ccc(C(=O)O)cc5)cc4cc32)cc1`, for which the values for the Abrasion score in the test listed under Mus musculus [1] and in the test listed under Mus musculus [2] were 0 and 1, respectively. Besides, the Flaking score in the test filed under Mus musculus [3] and in the test filed under Mus musculus [8] was 1 each time. Besides, the Gain in the test listed under Mus musculus [4] was 5%; in the test filed under Mus musculus [5] it was 2%. In addition, the values for the Cutaneous toxicology score in the test filed under Mus musculus [6] and in the test filed under Mus musculus [7] were 1.1 and 2, respectively.

For the molecule `C/C(=C\c1ccc(C(=O)O)cc1)c1ccc2c(c1)C(C)(C)CCC2(C)C`, in the test filed under Mus musculus [18], the Abrasion score was found to be 2. The same molecule had a Flaking score in the test listed under Mus musculus [19] of 3. The same molecule gave a Gain in the test listed under Mus musculus [20] of 6%. Further, in the test listed under Mus musculus [21], the Cutaneous toxicology score came out at 11.

Take `Cc1ccc(C2=CC(C)(C)Oc3cc4ccc(-c5ccc(C(=O)O)cc5)cc4cc32)cc1` [listing 2 of 2 here]: the Kd in test [12] came to 14 nM; in test [13] it was 7 nM; in [15], 14 nM. In addition, the IC50 is 2 nM in test [14], 7.5 nM in [16] and 5.5 nM in [17].

For the molecule `Cc1ccc(C2=CCC(C)(C)c3cc4ccc(-c5ccc(C(=O)O)cc5)cc4cc32)cc1` [listing 2 of 2 here], the figures for the inhibition in [9], in [10] and in [11] were 97%, 97% and 98%, respectively.

Take `Cc1ccc(C2=CC(C)(C)Oc3cc4ccc(-c5ccc(C(=O)O)cc5)cc4cc32)s1`: the IC50 was 4 nM in [14], 6.5 nM in [16] and 6.5 nM in test [17]. Also, the inhibition in test [9] is 97%; in [10], 98%; in test [11], 97%.

The record behind these values is ChEMBL document CHEMBL1132062, “A new class of potent RAR antagonists: dihydroanthracenyl, benzochromenyl and benzothiochromenyl retinoids” (Bioorg Med Chem Lett, 1999).
